Measured values taken from ChEMBL document CHEMBL4699598, “Discovery of Novel Substituted N-(4-Amino-2-chlorophenyl)-5-chloro-2-hydroxybenzamide Analogues as Potent Human Adenovirus Inhibitors” (J Med Chem, 2020).
Active and inactive are the calls of the source. The rule behind the calls is not given here.

Experiments:
[1] = tested on: Human adenovirus 5; assay: Antiviral activity against wild-type Human adenovirus 5 infected in human A549 cells assessed as inhibition of viral DNA replication by measuring number of viral DNA copies at 2.7 uM after 24 hrs by RT-qPCR analysis (reference value: 100 +/- 0.16 %); assay type: functional; set-up: scale not given: the % may be the effect or the level left
[2] = tested on: Human adenovirus 5; assay: Antiviral activity against Human adenovirus 5 infected in 293beta5 cells assessed as inhibition of virus infection at 10 fold IC50 measured after 5 mins by GFP reporter gene assay relative to control; assay type: functional, HEK293
[3] = Cytotoxicity against human A549 cells assessed as reduction in cell viability incubated for 48 hrs by alamarBlue assay; assay type: cell-based
[4] = tested on: Human adenovirus 5; assay: Antiviral activity against Human adenovirus 5 infected in 293beta5 cells assessed as inhibition of plaque formation at 10 uM incubated for 7 days by GFP reporter gene assay relative to control; assay type: functional; details: Human mastadenovirus C, HEK293, 168 h, time 7 day
[5] = tested on: Human adenovirus 5; assay: Antiviral activity against WT-Human adenovirus 5 infected in A549 cells assessed as fold reduction in virus yield at 10 fold of IC50 after 48 hrs endpoint dilution method; assay type: functional
[6] = Selectivity index, ratio of CC50 for cytotoxicity against human A549 cells assessed as reduction in cell viability incubated for 48 hrs by alamarBlue assay to IC50 for antiviral activity against Human adenovirus 5 infected in 293beta5 cells assessed as inhibition of plaque formation incubated for 7 days by GFP reporter gene assay; assay type: toxicity, cell-based; details: read-out: Ratio CC50/IC50
[7] = tested on: Human betaherpesvirus 5; assay: Antiviral activity against human cytomegalovirus infected in HFF cells assessed as inhibition of viral replication by measuring number of viral DNA copies at 2.7 uM incubated for 72 hrs by RT-PCR analysis (reference value: 100 +/- 25.56 %); assay type: functional; set-up: scale not given: the % may be the effect or the level left
[8] = tested on: Human adenovirus 5; assay: Antiviral activity against wild-type Human adenovirus 5 infected in human A549 cells assessed as inhibition of virus entry incubated for 48 hrs by fluorescence assay; assay type: functional, organism-based; details: Human mastadenovirus C, A549, 48 h
[9] = tested on: Human adenovirus 5; assay: Antiviral activity against wild-type Human adenovirus 5 infected in human A549 cells assessed as inhibition of viral entry by measuring nuclear associated viral genome level at 10 fold IC50 incubated for 45 mins by RT-PCR analysis (reference value: 100 +/- 1.07 %); assay type: functional; set-up: scale not given: the % may be the effect or the level left; details: 0.75 h
[10] = tested on: Human adenovirus 5; assay: Antiviral activity against GFP-fused Human adenovirus 5 infected in 293beta5 cells assessed as inhibition of plaque formation incubated for 7 days by GFP reporter gene assay; assay type: functional, organism-based; details: Human mastadenovirus C, HEK293, 168 h
[11] = tested on: Human betaherpesvirus 5; assay: Antiviral activity against human cytomegalovirus infected in HFF cells assessed as inhibition of viral replication by measuring number of viral DNA copies at 9 uM incubated for 72 hrs by RT-PCR analysis (reference value: 100 +/- 25.56 %); assay type: functional; set-up: scale not given: the % may be the effect or the level left
[12] = tested on: Human adenovirus 5; assay: Antiviral activity against wild-type Human adenovirus 5 infected in human A549 cells assessed as inhibition of viral DNA replication by measuring number of viral DNA copies at 9 uM after 24 hrs by RT-qPCR analysis (reference value: 100 +/- 0.16 %); assay type: functional; set-up: scale not given: the % may be the effect or the level left
[13] = tested on: Human adenovirus 5; assay: Antiviral activity against Human adenovirus 5 infected in 293beta5 cells assessed as inhibition of virus infection at 10 fold of IC50 measured at 0 min by GFP reporter gene assay relative to control; assay type: functional, HEK293
[14] = tested on: Human adenovirus 5; assay: Antiviral activity against wild-type Human adenovirus 5 infected in human A549 cells assessed as inhibition of viral DNA replication by measuring number of viral DNA copies at 12 uM after 24 hrs by RT-qPCR analysis (reference value: 100 +/- 0.16 %); assay type: functional; set-up: scale not given: the % may be the effect or the level left
[15] = tested on: Human betaherpesvirus 5; assay: Antiviral activity against human cytomegalovirus infected in HFF cells assessed as inhibition of viral replication by measuring number of viral DNA copies at 12 uM incubated for 72 hrs by RT-PCR analysis (reference value: 100 +/- 25.56 %); assay type: functional; set-up: scale not given: the % may be the effect or the level left
[16] = tested on: Human adenovirus 5; assay: Antiviral activity against Human adenovirus 5 infected in 293beta5 cells assessed as inhibition of virus infection at 10 times IC50 measured after 10 to 20 mins by GFP reporter gene assay relative to control; assay type: functional, organism-based; details: HEK293, time min 10-20
[17] = tested on: Cytomegalovirus; assay: Antiviral activity against human cytomegalovirus infected in HFF cells assessed as decrease in number of viral DNA copies at 9.3 uM incubated for 72 hrs by RT-PCR analysis (reference value: 100 +/- 25.56 %); assay type: functional; set-up: scale not given: the % may be the effect or the level left
[18] = tested on: Human adenovirus 5; assay: Antiviral activity against wild-type Human adenovirus 5 infected in human A549 cells assessed as inhibition of viral DNA replication by measuring number of viral DNA copies at 9.3 uM after 24 hrs by RT-qPCR analysis (reference value: 100 +/- 0.16 %); assay type: functional; set-up: scale not given: the % may be the effect or the level left
[19] = tested on: Human betaherpesvirus 5; assay: Antiviral activity against human cytomegalovirus infected in HFF cells assessed as inhibition of viral replication by measuring number of viral DNA copies at 7.8 uM incubated for 72 hrs by RT-PCR analysis (reference value: 100 +/- 25.56 %); assay type: functional; set-up: scale not given: the % may be the effect or the level left
[20] = tested on: Human adenovirus 5; assay: Antiviral activity against wild-type Human adenovirus 5 infected in human A549 cells assessed as inhibition of viral DNA replication by measuring number of viral DNA copies at 7.8 uM after 24 hrs by RT-qPCR analysis (reference value: 100 +/- 0.16 %); assay type: functional; set-up: scale not given: the % may be the effect or the level left
[21] = tested on: Human betaherpesvirus 5; assay: Antiviral activity against human cytomegalovirus infected in HFF cells assessed as inhibition of viral replication by measuring number of viral DNA copies at […] incubated for 72 hrs by RT-PCR analysis (reference value: 100 +/- 25.56 %); assay type: functional; set-up: scale not given: the % may be the effect or the level left; details: dose 11.1 µM
[22] = tested on: Human adenovirus 5; assay: Antiviral activity against Human adenovirus 5 infected in 293beta5 cells assessed as inhibition of virus infection at 10 fold IC50 measured after 60 mins by GFP reporter gene assay relative to control; assay type: functional, HEK293; details: 1 h
[23] = tested on: Human adenovirus 5; assay: Antiviral activity against wild-type Human adenovirus 5 infected in human A549 cells assessed as inhibition of viral DNA replication by measuring number of viral DNA copies at […] after 24 hrs by RT-qPCR analysis (reference value: 100 +/- 0.16 %); assay type: functional; set-up: scale not given: the % may be the effect or the level left; details: dose 11.1 µM
[24] = tested on: Human betaherpesvirus 5; assay: Antiviral activity against human cytomegalovirus infected in HFF cells assessed as inhibition of viral replication by measuring number of viral DNA copies at 12.7 uM incubated for 72 hrs by RT-PCR analysis (reference value: 100 +/- 25.56 %); assay type: functional; set-up: scale not given: the % may be the effect or the level left
[25] = tested on: Human adenovirus 5; assay: Antiviral activity against wild-type Human adenovirus 5 infected in human A549 cells assessed as inhibition of viral DNA replication by measuring number of viral DNA copies at 12.7 uM after 24 hrs by RT-qPCR analysis (reference value: 100 +/- 0.16 %); assay type: functional; set-up: scale not given: the % may be the effect or the level left

SMILES | CC50 at 48 h [3] [µM] | inhibition at 10 µM [4] [%] | fold change (FC) [5] | selectivity ratio at 48 h [6] | IC50 [8] [µM] | Activity [9] [%] | IC50 [10] [µM] | inhibition (INH) [13] [%] | also measured
CC1(Nc2ccc(NC(=O)c3cc(Cl)ccc3O)c(Cl)c2)CCCC1 | 157 | 100 | 52.6 | 581 | 15.2 | 53.7 | 0.27 | – | Activity [1]: 20.21%; inhibition (INH) [2]: <50%; Activity [7]: 91.25%
CC(C)(CCO)Nc1ccc(NC(=O)c2cc(Cl)ccc2O)c(Cl)c1 | 170 | – | 15.7 | 188 | – | 99.97 | 0.9 | <50 | Activity [11]: 14.35%; Activity [12]: 65.04%
CC(CCO)Nc1ccc(NC(=O)c2cc(Cl)ccc2O)c(Cl)c1 (stereo not given) | 200 | – | 9.3 | 167 | 30.8 | 98.96 | 1.2 | <50 | Activity [14]: 80.94%; Activity [15]: 22.47%
CC(C)(C)OC(=O)N1CCC(CNc2ccc(NC(=O)c3cc(Cl)ccc3O)c(Cl)c2)CC1 | 92 | – | 232 | 102 | < 3.13 | 59.54 | 0.93 | – | inhibition [16]: inactive; Activity [17]: 15.58%; Activity [18]: 2.49%
O=C(Nc1ccc(NCc2ccc(O)nc2)cc1Cl)c1cc(Cl)ccc1O | 98.5 | 100 | 26.6 | 126 | > 50 | 13.6 | 0.78 | <50 | Activity [19]: 18.18%; Activity [20]: 53.62%
O=C(Nc1ccc(NCc2ccc(O)cc2)cc1Cl)c1cc(Cl)ccc1O | 116 | – | 17.4 | 104 | 25 | 11.56 | 1.11 | – | Activity [21]: 15.71%; inhibition (INH) [22]: >=50%; Activity [23]: 83.72%
CC(C)(Cc1ccccc1)ON(c1ccc(NC(=O)c2cc(Cl)ccc2O)c(Cl)c1)C(C)(C)Cc1ccccc1 | 165 | 100 | 21.5 | 130 | 34.1 | 95.87 | 1.27 | – | inhibition (INH) [2]: <50%; Activity [24]: 9.15%; Activity [25]: 2.37%
